Experimental data published in patent US7563895B2, “Quinoxaline compounds” (Janssen Pharmaceutica, N.V., priority 2003, dated 2009).

target: T1, CCK2 receptor (Homo sapiens, UniProt P32239); experiment: CCK2 receptor radioligand binding assay ([125I]-BH-CCK-8S, HEKZFP cell membranes); settings: competition with [125I]-BH-CCK-8S, membranes of induced HEKZFP cells, 60 min at 21±3° C., Cheng-Prusoff
T1 construct: Membranes were prepared from the HEKZFP cells after induction; endogenous in cells; host or cells: HEKZFP cells (T-REx-293 with tet-inducible ZFP-VP16 specific for the CCK2R gene), doxycycline-induced; membrane preparation
T1 sequence (P32239 1-447): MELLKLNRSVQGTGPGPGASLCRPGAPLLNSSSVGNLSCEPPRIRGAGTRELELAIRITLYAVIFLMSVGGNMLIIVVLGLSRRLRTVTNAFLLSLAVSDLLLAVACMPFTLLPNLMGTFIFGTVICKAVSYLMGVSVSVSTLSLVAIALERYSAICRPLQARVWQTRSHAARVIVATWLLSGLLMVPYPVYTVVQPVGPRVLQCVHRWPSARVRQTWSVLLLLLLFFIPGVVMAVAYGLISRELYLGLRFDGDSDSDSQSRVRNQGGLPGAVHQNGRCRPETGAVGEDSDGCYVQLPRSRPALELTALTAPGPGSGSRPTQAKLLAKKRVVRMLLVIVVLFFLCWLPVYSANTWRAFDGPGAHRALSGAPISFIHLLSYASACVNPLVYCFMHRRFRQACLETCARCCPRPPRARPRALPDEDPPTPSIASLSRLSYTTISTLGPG
Description: Zinc Finger Proteins (ZFP) specific for the CCK2R gene were identified by Sangamo Biosciences. The ZFP domain was fused with the herpes simplex virus VP16 activation domain, and the fusion protein was subsequently cloned into the pcDNA3 mammalian expression vector (Invitrogen, San Diego, Calif.). […] After 2 weeks of selection in culture medium containing […] Zeocin (Invitrogen), sixty drug-resistant stable clones were isolated and analyzed for ZFP expression as well as CCK2R induction upon addition of doxycycline to the culture medium.
HEKZFP cells were grown in DMEM supplemented with L-glutamine (2 mM), penicillin (50 units/mL) and streptomycin (50 μg/mL) and 10% FBS (v/v).
Membranes were prepared from the HEKZFP cells after induction. […] The thawed pellets were homogenized using a Polytron PT-10 (7×1 s). The homogenates were centrifuged for 5 min at 1500 rpm (600×g), and the resulting pellets were discarded. The supernatants were re-centrifuged in order to collect the receptor-membrane pellets (25 min 15,000 rpm; 39,800×g), which were re-suspended in buffer A.
The assay preparation was incubated for 1 h at 21±3° C., and then the assay was terminated by rapid filtration of the preparation under reduced pressure. The loaded filters were washed three times using undiluted PBS (100 μL), and then 100 μL of scintillation fluid was added to the filter plate. Bound radioactivity was determined using a Topcount (Packard BioScience, Meriden, Conn.) with a count time of 1 min. […] To validate the radioligand concentration and incubation time for the assay, saturation and kinetic binding studies were also conducted (see M. F. Morton, The Pharmacological Characterization of Cholecystokinin Receptors in the Human Gastrointestinal Tract. PhD Thesis, University of London, 2000). […] The assay was then terminated according to the procedure outlined above.
The pKi values were determined using the equation of Y.-C.
To circumvent problems associated with computer-assisted data analysis of compounds with low affinity, the data obtained in the current study were weighed according to a method described by Morton. In brief, 100% and 0% specific binding were defined independently using total binding and binding obtained in the presence of a high concentration of the reference antagonist, 2-NAP.

SMILES | Ki [nM] | pKi
O=C(c1ccc(I)cc1NS(=O)(=O)c1cccc2nccnc12)N1CCCCCC1 [Example 18, Quinoxaline-5-sulfonic acid [2-(azepane-1-carbonyl)-5-iodophenyl]-amide] | 63.1 | –
O=C(c1ccc(Br)cc1NS(=O)(=O)c1cccc2nccnc12)N1CCCc2cc(F)ccc2C1 [Example 24, Quinoxaline-5-sulfonic acid [5-bromo-2-(7-fluoro-1,3,4,5-tetrahydro-benzo[c]azepine-2-carbonyl)-phenyl]-amide] | 316 | –
O=C(N[C@H](CF)c1ccc(F)cc1F)c1ccc(Br)cc1NS(=O)(=O)c1cccc2nccnc12 [Example 76, (S)-4-Bromo-N-[1-(2,4-difluoro-phenyl)-2-fluoro-ethyl]-2-(quinoxaline-5-sulfonylamino)-benzamide] | 25.1 | –
C[C@@H](NC(=O)c1ccc(I)cc1NS(=O)(=O)c1cccc2nccnc12)c1ccc(F)cc1 [Example 63, (R)-N-[1-(4-Fluoro-phenyl)-ethyl]-4-iodo-2-(quinoxaline-5-sulfonylamino)-benzamide] | 31.6 | –
CC(NC(=O)c1ccc(I)cc1NS(=O)(=O)c1cccc2nccnc12)c1ccc(F)cc1 (stereo not shown) [Example 54, N-[1-(4-Fluoro-phenyl)-ethyl]-4-iodo-2-(quinoxaline-5-sulfonylamino)-benzamide] | 39.8 | –
O=C(NCc1ccc(Cl)cc1Cl)c1ccc(Cl)cc1NS(=O)(=O)c1cccc2nccnc12 [Example 58, 4-Chloro-N-(2,4-dichloro-benzyl)-2-(quinoxaline-5-sulfonylamino)-benzamide] | 63.1 | –
O=C(NCc1ccc(F)cc1F)c1ccc(I)cc1NS(=O)(=O)c1cccc2nccnc12 [Example 57, N-(2,4-Difluoro-benzyl)-4-iodo-2-(quinoxaline-5-sulfonylamino)-benzamide] | – | 7.4
C[C@@H]1COC[C@H](C)N1C(=O)c1ccc(Br)cc1NS(=O)(=O)c1cccc2nccnc12 [Example 27, meso-Quinoxaline-5-sulfonic acid [2-(3,5-dimethylmorpholine-4-carbonyl)-5-bromophenyl]-amide] | 316 | –
C[C@@H](NC(=O)c1ccc(Br)cc1NS(=O)(=O)c1cccc2nccnc12)c1ccc(Cl)cc1Cl [Example 1, (R)-4-Bromo-N-[1-(2,4-dichlorophenyl)-ethyl]-2-(quinoxaline-5-sulfonylamino)-benzamide] | 7.94 | –
O=C(c1ccc(Cl)cc1NS(=O)(=O)c1cccc2nccnc12)N1CCOCC1 [Example 14, (R)-Quinoxaline-5-sulfonic acid [5-chloro-2-(morpholine-4-carbonyl)phenyl]-amide] | – | 6.5
O=C(c1ccc(Br)cc1NS(=O)(=O)c1cccc2nccnc12)N1CCCCC1 [Example 32, Quinoxaline-5-sulfonic acid [5-bromo-2-(piperidine-1-carbonyl)-phenyl]-amide] | – | 7.2
C[C@H]1COCCN1C(=O)c1ccc(I)cc1NS(=O)(=O)c1cccc2nccnc12 [Example 23, (S)-Quinoxaline-5-sulfonic acid [5-iodo-2-(3-methylmorpholine-4-carbonyl)-phenyl]-amide] | 251 | –
C[C@@H](NC(=O)c1ccc(I)cc1NS(=O)(=O)c1cccc2nccnc12)c1ccc(Cl)cc1Cl [Example 64, (R)-N-[1-(2,4-Dichloro-phenyl)-ethyl]-4-iodo-2-(quinoxaline-5-sulfonylamino)-benzamide] | 25.1 | –
C[C@@H](NC(=O)c1ccc(C(F)(F)F)cc1NS(=O)(=O)c1cccc2nccnc12)c1ccc(F)cc1F [Example 36, (R)—N-[1-(2,4-Difluorophenyl)ethyl]-2-(quinoxaline-5-sulfonylamino)-4-trifluoromethylbenzamide] | 25.1 | –
O=C(NCc1ccc(F)cc1F)c1ccc(Br)cc1NS(=O)(=O)c1cccc2nccnc12 [Example 17, 4-Bromo-N-(2,4-difluoro-benzyl)-2-(quinoxaline-5-sulfonylamino)-benzamide] | 63.1 | –
O=C(N[C@H](CF)c1ccc(F)cc1)c1ccc(I)cc1NS(=O)(=O)c1cccc2nccnc12 [Example 73, (S)-N-[2-Fluoro-1-(4-fluoro-phenyl)-ethyl]-4-iodo-2-(quinoxaline-5-sulfonylamino)-benzamide] | 79.4 | –
CC(NC(=O)c1ccc(Br)cc1NS(=O)(=O)c1cccc2nccnc12)c1ccc(Cl)cc1 (stereo not shown) [Example 50, 4-Bromo-N-[1-(4-chloro-phenyl)-ethyl]-2-(quinoxaline-5-sulfonylamino)-benzamide] | 63.1 | –
C[C@@H](NC(=O)c1ccc(Cl)cc1NS(=O)(=O)c1cccc2nccnc12)c1ccc(Cl)cc1Cl [Example 43, (R)-4-Chloro-N-[1-(2,4-dichloro-phenyl)-ethyl]-2-(quinoxaline-5-sulfonylamino)-benzamide] | 10 | –
C[C@@H](NC(=O)c1ccc(C#N)cc1NS(=O)(=O)c1cccc2nccnc12)c1ccc(F)cc1F [Example 38, (R)-4-Cyano-N-[1-(2,4-difluoro-phenyl)ethyl]-2-(quinoxaline-5-sulfonylamino)-benzamide] | 316 | –
O=C(c1ccc(Br)cc1NS(=O)(=O)c1cccc2nccnc12)N1CCCc2ccccc2C1 [Example 10, Quinoxaline-5-sulfonic acid [5-bromo-2-(1,3,4,5-tetrahydrobenzo[c]azepine-2-carbonyl)phenyl]-amide] | 50.1 | –
O=C(NC(CF)c1ccc(F)cc1F)c1ccc(Br)cc1NS(=O)(=O)c1cccc2nccnc12 (stereo not shown) [Example 74, 4-Bromo-N-[1-(2,4-difluoro-phenyl)-2-fluoro-ethyl]-2-(quinoxaline-5-sulfonylamino)-benzamide] | 31.6 | –
O=C(c1ccc(Cl)cc1NS(=O)(=O)c1cccc2nccnc12)N1CCOc2cc(F)cc(F)c2C1 [Example 40, Quinoxaline-5-sulfonic acid [5-chloro-2-(6,8-difluoro-2,3-dihydro-5H-benzo[f][1,4]oxazepine-4-carbonyl)-phenyl]-amide] | 251 | –
O=C(N[C@H](CF)c1ccc(F)cc1F)c1ccc(I)cc1NS(=O)(=O)c1cccc2nccnc12 [Example 77, (S)-N-[1-(2,4-Difluoro-phenyl)-2-fluoro-ethyl]-4-iodo-2-(quinoxaline-5-sulfonylamino)-benzamide] | 50.1 | –
O=C(NCc1ccc(F)cc1Cl)c1ccc(Cl)cc1NS(=O)(=O)c1cccc2nccnc12 [Example 61, 4-Chloro-N-(2-chloro-4-fluoro-benzyl)-2-(quinoxaline-5-sulfonylamino)-benzamide] | 39.8 | –
O=C(c1ccc(I)cc1NS(=O)(=O)c1cccc2nccnc12)N1CCOCC1 [Example 6, Quinoxaline-5-sulfonic acid [5-iodo-2-(morpholine-4-carbonyl)-phenyl]-amide] | – | 7.5
C[C@@H](NC(=O)c1cc(Cl)c(Cl)cc1NS(=O)(=O)c1cccc2nccnc12)c1ccc(F)cc1F [Example 5, (R)-4,5-Dichloro-N-[1-(2,4-difluorophenyl)ethyl]-2-(quinoxaline-5-sulfonylamino)-benzamide] | 15.8 | –
C[C@H](c1ccccc1)N(C)C(=O)c1ccc(I)cc1NS(=O)(=O)c1cccc2nccnc12 [Example 34, (R)-4-Iodo-N-methyl-N-(1-phenyl-ethyl)-2-(quinoxaline-5-sulfonylamino)-benzamide] | 7.94 | –
O=C(c1ccc(C(F)(F)F)cc1NS(=O)(=O)c1cccc2nccnc12)N1CCOCC1 [Example 92, Quinoxaline-5-sulfonic acid [2-(morpholine-4-carbonyl)-5-trifluoromethyl-phenyl]-amide] | 79.4 | –
